Assay [1] addresses T1, ABL (Homo sapiens, UniProt P00519).
T1 construct: purchased Invitrogen
The assay is described as follows: In vitro kinase assay (Z′-LYTE). Format: biochemical. The settings on record: read-out: % of inhibition of the kinase compared to the control. On the procedure:
(§1) The inhibitory activity of the compounds on several kinases including BRAF, EGFR (ErbB1), EGFR (ErbB1) T790M L858R, FGFR2, KDR (VEGFR2), PDGFRA (PDGFR alpha), SRC and other was evaluated by Invitrogen using the Z′-LYTE® technology. Briefly, the Z′-LYTE® biochemical assay employs a fluorescence-based, coupled-enzyme format and is based on the differential sensitivity of phosphorylated and non-phosphorylated peptides to proteolytic cleavage. The peptide substrate is labeled with two fluorophores—one at each end—that make up a FRET pair. A ratiometric method, which calculates the ratio (the Emission Ratio) of donor emission to acceptor emission after excitation of the donor fluorophore at 400 nm, is used to quantitate reaction progress.
(§2) The compounds are screened in 1% DMSO (final) in the well. For 10 point titrations, 3-fold serial dilutions are conducted from the starting concentration. All Peptide/Kinase Mixtures are diluted to a 2× working concentration in the appropriate Kinase Buffer. All ATP Solutions are diluted to a 4× working concentration in Kinase Buffer (50 mM HEPES pH 7.5, 0.01% BRIJ-35, 10 mM MgCl2, 1 mM EGTA). ATP Km apparent is previously determined using a Z′-LYTE® assay.
(§3) Each compound was incubated at a concentration of 100 nM (excepted to test the activity against ABL and ABL T315I for which the compounds were incubated at a concentration of 10 μM) and the tables B1 to B12 summarize the results obtained showing the inhibitory power of a compound. The inhibitory activity of OR0512 was also investigated using the same assays and the kinases for which activity was inhibited at more than 50% at the concentration of 100 nM of OR0512 are listed in the table B13.

Assay [2] addresses T2, ABL T315I (Homo sapiens, UniProt P00519, T315I).
T2 construct: purchased Invitrogen
The assay is described as follows: In vitro kinase assay (Z′-LYTE). Format: biochemical. The settings on record: read-out: % of inhibition of the kinase compared to the control. On the procedure:
as §1, §2, §3

Assay [3] deals with T3, BRAF (Homo sapiens, UniProt P15056).
T3 construct: purchased Invitrogen
The assay is described as follows: In vitro kinase assay (Z′-LYTE). Type of assay: biochemical. As to conditions: compound 100 nM; ATP 100 μM; read-out: % of inhibition of the kinase compared to the control. On the procedure: as §1, §2, §3

In assay [4] the target is T4, EGFR (ErbB1) (Homo sapiens, UniProt P00533).
T4 construct: purchased Invitrogen
The assay is described as follows: In vitro kinase assay (Z′-LYTE). Type of assay: biochemical. The settings on record: read-out: % of inhibition of the kinase compared to the control. On the procedure: as §1, §2, §3

For assay [5], the target named is T5, EGFR (ErbB1) T790M L858R (Homo sapiens, UniProt P00533, L858R/T790M).
T5 construct: purchased Invitrogen
In words: In vitro kinase assay (Z′-LYTE). Format: biochemical. As to conditions: read-out: % of inhibition of the kinase compared to the control. As for the experimental part: as §1, §2, §3

Assay [6] has as its target T6, FGFR1 (Homo sapiens, UniProt P11362).
T6 construct: purchased Invitrogen
The assay is described as follows: In vitro kinase assay (Z′-LYTE). Type of assay: biochemical. The settings on record: read-out: % of inhibition of the kinase compared to the control. On the procedure: as §1, §2, §3

Assay [7] addresses T7, FGFR2 (Homo sapiens, UniProt P21802).
T7 construct: purchased Invitrogen
In words: In vitro kinase assay (Z′-LYTE). Type of assay: biochemical. The settings on record: read-out: % of inhibition of the kinase compared to the control. As for the experimental part:
as §1, §2, §3

The target of assay [8] is T8, KDR (VEGFR2) (Homo sapiens, UniProt P35968).
T8 construct: purchased Invitrogen
The assay is described as follows: In vitro kinase assay (Z′-LYTE). The settings on record: read-out: % of inhibition of the kinase compared to the control. Format: biochemical. On the procedure: as §1, §2, §3

Assay [9] addresses T9, PDGFRA (PDGFR alpha) (Homo sapiens, UniProt P16234).
T9 construct: purchased Invitrogen
The assay is described as follows: In vitro kinase assay (Z′-LYTE). The settings on record: read-out: % of inhibition of the kinase compared to the control. Format: biochemical. As for the experimental part:
as §1, §2, §3

The target of assay [10] is T10, PDGFRB (Homo sapiens, UniProt P09619).
T10 construct: purchased Invitrogen
The assay is described as follows: In vitro kinase assay (Z′-LYTE). Format: biochemical. The settings on record: read-out: % of inhibition of the kinase compared to the control. As for the experimental part:
as §1, §2, §3

Assay [11] deals with T11, SRC (Homo sapiens, UniProt P12931).
T11 construct: purchased Invitrogen
In words: In vitro kinase assay (Z′-LYTE). Type of assay: biochemical. As to conditions: read-out: % of inhibition of the kinase compared to the control. As for the experimental part: as §1, §2, §3

Assay [12] deals with T12, VEGFR1 (Homo sapiens, UniProt P17948).
T12 construct: purchased Invitrogen
The assay is described as follows: In vitro kinase assay (Z′-LYTE). As to conditions: read-out: % of inhibition of the kinase compared to the control. Type of assay: biochemical. On the procedure: as §1, §2, §3

The subject of assay [13] is BxPC-3. The assay is described as follows: In vitro cell proliferation assay (MTT). The settings on record: Homo sapiens, BXPC-3, 72 h. Format: cell-based. As for the experimental part:
(§4) Cancer cell lines (5×10^3 cells per well) or HUVEC (1×10^4 cells per well) or HRMEC (1×10^4 cells per well) were distributed in 96-well plates and incubating in duplicate with escalating concentrations (10 nM to 3 μM) of compounds for 72 hr. Cell proliferation was measured using MTT (3 [4,5-dimethylthiazol-2-yl]-2,5-diphenyltetrazolium bromide).

The test system of assay [14] is HUVEC. The assay is described as follows: In vitro cell proliferation assay (MTT). Format: cell-based. As to conditions: Homo sapiens, 72 h. On the procedure: as §4
Assay [15] relates to HepG2. The assay is described as follows: In vitro cell proliferation assay (MTT). Type of assay: cell-based. As to conditions: Homo sapiens, HepG2, 72 h. As for the experimental part: as §4

SMILES strings stand for the structures. Where only a bound is given, the exact number is not on record here.

The record followed here is patent US9493455B2, “Azaindole derivatives as inhibitors of protein kinases” (ORIBASE PHARMA, priority 2012, dated 2016).

T4 sequence (P00533 25-1210): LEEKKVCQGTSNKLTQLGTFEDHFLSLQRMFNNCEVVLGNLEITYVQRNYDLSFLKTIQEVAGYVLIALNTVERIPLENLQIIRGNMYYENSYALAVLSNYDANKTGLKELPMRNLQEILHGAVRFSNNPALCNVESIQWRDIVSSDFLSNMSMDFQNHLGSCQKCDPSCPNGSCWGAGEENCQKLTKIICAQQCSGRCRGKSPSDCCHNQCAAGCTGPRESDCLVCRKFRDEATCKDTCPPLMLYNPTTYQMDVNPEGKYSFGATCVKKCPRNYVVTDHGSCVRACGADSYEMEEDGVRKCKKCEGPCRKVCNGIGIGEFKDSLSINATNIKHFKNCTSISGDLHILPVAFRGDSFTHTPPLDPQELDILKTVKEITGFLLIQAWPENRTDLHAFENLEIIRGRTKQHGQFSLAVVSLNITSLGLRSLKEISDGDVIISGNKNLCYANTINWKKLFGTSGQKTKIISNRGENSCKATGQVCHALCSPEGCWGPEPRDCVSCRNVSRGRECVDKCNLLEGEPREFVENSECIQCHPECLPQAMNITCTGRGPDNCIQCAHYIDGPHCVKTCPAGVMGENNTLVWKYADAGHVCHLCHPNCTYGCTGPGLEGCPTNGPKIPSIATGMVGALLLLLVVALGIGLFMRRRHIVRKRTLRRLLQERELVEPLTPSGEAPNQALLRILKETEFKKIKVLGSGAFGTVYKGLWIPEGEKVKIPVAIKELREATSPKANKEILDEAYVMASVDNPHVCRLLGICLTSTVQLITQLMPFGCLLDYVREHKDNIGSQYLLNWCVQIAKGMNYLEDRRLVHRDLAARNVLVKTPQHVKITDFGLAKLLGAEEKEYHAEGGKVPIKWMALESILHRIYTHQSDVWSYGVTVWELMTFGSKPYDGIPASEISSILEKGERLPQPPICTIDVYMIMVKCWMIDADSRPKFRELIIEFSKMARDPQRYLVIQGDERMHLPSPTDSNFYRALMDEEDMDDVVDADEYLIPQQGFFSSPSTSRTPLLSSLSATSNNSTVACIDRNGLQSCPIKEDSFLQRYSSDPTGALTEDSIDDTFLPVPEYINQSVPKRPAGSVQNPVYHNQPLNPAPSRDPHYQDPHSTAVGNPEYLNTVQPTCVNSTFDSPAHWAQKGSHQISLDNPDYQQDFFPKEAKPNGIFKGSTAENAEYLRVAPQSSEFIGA
T6 sequence (P11362 22-822): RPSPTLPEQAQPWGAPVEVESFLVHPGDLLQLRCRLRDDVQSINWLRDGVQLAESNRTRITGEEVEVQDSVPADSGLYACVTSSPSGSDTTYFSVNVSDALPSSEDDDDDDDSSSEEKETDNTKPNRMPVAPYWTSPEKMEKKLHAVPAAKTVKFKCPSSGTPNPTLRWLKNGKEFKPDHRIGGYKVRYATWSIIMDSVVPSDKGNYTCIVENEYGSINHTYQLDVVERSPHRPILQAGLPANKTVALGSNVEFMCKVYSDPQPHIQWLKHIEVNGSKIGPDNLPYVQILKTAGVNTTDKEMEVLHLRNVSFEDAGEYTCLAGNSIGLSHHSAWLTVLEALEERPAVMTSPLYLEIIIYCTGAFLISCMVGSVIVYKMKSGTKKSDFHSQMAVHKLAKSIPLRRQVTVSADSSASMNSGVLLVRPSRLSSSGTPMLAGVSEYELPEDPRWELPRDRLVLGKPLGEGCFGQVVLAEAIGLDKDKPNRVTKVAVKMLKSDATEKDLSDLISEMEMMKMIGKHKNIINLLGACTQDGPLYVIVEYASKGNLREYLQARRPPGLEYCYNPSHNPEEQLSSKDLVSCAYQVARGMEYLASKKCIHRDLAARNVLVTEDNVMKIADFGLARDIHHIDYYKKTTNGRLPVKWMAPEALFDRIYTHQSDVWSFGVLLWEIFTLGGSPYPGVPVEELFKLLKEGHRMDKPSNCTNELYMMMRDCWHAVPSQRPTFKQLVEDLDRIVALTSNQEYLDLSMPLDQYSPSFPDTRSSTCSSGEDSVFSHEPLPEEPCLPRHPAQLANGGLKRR
T11 sequence (P12931 whole entry): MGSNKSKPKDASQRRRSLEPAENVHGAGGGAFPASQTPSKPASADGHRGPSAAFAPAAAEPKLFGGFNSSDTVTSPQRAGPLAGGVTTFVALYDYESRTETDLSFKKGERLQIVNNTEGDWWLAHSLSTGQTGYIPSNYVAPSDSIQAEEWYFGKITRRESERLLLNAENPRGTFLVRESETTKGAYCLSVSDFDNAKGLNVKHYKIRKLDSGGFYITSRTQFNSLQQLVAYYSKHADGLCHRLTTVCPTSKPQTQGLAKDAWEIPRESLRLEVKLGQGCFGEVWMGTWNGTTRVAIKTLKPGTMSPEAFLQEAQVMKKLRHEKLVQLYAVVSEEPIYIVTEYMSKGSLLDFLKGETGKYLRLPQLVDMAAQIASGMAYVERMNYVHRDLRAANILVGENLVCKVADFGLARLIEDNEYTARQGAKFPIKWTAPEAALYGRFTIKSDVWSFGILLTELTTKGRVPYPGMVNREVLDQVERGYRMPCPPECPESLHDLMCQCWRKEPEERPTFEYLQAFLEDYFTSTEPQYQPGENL
T5 sequence (P00533 25-1210 T790M/L858R): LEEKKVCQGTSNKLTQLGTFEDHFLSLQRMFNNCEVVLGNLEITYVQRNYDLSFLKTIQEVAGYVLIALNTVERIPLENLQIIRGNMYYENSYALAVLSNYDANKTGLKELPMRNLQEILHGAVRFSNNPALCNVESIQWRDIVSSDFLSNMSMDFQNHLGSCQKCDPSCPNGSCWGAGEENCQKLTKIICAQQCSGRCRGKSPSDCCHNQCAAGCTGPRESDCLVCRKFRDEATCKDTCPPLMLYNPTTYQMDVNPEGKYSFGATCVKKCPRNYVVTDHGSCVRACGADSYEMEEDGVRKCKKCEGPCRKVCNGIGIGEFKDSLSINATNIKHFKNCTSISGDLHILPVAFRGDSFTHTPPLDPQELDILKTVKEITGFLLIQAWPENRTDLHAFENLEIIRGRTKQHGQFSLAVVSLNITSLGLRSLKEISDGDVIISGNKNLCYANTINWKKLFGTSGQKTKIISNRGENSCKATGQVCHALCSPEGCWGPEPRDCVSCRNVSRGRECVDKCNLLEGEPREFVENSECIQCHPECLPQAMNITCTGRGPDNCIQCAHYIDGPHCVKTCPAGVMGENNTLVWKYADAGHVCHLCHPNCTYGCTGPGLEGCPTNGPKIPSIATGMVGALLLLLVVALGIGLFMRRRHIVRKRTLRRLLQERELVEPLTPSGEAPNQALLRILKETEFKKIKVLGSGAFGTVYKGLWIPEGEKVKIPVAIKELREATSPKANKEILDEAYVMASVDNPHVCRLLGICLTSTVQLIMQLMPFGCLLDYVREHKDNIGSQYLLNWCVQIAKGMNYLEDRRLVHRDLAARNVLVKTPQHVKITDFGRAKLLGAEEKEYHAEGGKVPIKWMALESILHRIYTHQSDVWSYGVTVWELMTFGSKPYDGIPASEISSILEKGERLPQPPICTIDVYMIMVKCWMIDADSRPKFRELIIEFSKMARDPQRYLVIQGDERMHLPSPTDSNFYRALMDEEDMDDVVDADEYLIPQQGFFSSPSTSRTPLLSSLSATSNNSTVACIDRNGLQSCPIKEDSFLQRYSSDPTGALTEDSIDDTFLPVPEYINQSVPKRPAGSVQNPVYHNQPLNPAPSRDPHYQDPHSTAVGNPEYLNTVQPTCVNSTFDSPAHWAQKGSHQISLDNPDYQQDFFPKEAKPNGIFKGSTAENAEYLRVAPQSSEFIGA
T8 sequence (P35968 20-1356): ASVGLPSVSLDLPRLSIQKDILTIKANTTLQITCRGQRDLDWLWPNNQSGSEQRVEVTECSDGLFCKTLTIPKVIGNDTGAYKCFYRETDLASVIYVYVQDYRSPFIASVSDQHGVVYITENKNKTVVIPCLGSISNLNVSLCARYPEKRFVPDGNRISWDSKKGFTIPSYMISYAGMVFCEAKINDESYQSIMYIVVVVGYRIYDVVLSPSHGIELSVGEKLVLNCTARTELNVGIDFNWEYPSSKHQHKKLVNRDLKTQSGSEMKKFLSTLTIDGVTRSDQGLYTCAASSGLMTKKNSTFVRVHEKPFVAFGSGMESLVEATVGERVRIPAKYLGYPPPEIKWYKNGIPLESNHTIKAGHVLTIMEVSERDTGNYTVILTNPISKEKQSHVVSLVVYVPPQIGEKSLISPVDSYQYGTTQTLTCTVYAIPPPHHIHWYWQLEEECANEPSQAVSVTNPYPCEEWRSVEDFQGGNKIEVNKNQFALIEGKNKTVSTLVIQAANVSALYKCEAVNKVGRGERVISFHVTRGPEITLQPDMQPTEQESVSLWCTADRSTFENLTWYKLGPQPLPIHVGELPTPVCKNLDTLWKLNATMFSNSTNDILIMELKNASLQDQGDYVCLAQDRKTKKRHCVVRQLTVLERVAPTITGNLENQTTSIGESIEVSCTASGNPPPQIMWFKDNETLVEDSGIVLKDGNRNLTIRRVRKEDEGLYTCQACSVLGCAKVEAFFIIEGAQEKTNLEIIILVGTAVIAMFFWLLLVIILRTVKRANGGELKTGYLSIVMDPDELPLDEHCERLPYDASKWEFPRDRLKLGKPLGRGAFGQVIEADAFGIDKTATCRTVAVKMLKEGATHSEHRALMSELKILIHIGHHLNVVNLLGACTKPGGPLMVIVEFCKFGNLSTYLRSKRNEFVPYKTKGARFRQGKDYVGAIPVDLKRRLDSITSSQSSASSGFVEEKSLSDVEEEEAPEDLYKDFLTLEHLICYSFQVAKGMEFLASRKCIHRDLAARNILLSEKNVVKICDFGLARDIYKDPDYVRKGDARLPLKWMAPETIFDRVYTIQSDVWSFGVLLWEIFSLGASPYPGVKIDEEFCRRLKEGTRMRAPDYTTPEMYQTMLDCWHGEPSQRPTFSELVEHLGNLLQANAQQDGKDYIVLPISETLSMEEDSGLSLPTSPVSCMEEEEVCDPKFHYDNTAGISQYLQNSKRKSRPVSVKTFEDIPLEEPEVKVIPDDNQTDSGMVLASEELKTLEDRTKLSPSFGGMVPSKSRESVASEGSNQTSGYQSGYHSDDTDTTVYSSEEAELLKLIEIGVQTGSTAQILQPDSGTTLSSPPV

A word on the inhibition: it is the change of the read-out against control, counted positive when it falls. A word on the EC50: it is the concentration that produces a half-maximal response. Higher therefore signals weaker potency. With `COC(=O)c1cc2cc(NCc3cc(NS(=O)(=O)c4ccc(C)cc4)ccc3C)cnc2[nH]1` [OR0595], the inhibition at 10 µM was no less than 50% in assay [1] and less than 50% in [2]. The inhibition at 0.1 µM in [3], in assay [4], in assay [5], in assay [6], in [7] and in assay [8] was less than 50% throughout. In addition, the inhibition at 0.1 µM in assay [9], in assay [10], in [11] and in assay [12] was less than 50% throughout. Besides, the EC50 in assay [13] is no less than 1000 nM.
For the compound `COC(=O)c1cc2cc(NCc3cc(NC(=O)Nc4cccc(C(F)(F)F)c4)ccc3C)cnc2[nH]1` [OR0603], the figures for the inhibition at 10 µM in assay [1] and in [2] were no less than 50% and less than 50%, respectively. The inhibition at 0.1 µM in assay [3], in assay [4], in assay [5], in assay [6], in assay [7] and in [8] was less than 50% each time. Moreover, the inhibition at 0.1 µM was no less than 50% in assay [9], less than 50% in assay [10], no less than 50% in [11] and less than 50% in [12]. In [13], this compound gave an EC50 of 100 to 1000 nM.
`COC(=O)c1cc2cc(NCc3cc(NC(=O)c4cccc5c4OCC5)ccc3C)cnc2[nH]1` [OR0618]: the inhibition at 10 µM in assay [1] is no less than 50%; in assay [2] it was less than 50%. Also, the inhibition at 0.1 µM in assay [3], in assay [4], in assay [5], in assay [6], in assay [7] and in assay [8] was less than 50% each time. Further, the inhibition at 0.1 µM in assay [9] was no less than 50%; in assay [10], less than 50%; in [11] it was no less than 50%; in [12] it was less than 50%. This compound also had an EC50 in assay [13] of 100 to 1000 nM.
In the case of `COC(=O)c1cc2cc(NCc3cc(NC(=O)c4ccc(-c5csc(C)n5)cc4)ccc3C)cnc2[nH]1` [OR0620], the results for the inhibition at 10 µM in assay [1] and in [2] were no less than 50% and less than 50%, respectively. Besides, the inhibition at 0.1 µM in assay [3] was less than 50%; in [4] it was no less than 50%; in assay [5], less than 50%; in [6], less than 50%; in assay [7] it was less than 50%; in [8] it was less than 50%. For the same compound, the inhibition at 0.1 µM in assay [9] is no less than 50%; in [10], less than 50%; in [11], no less than 50%; in assay [12], less than 50%. Also, the EC50 in [13] was no less than 1000 nM.
Consider `COC(=O)c1cc2cc(NCc3cc(NC(=O)c4ccc(CN5CCN(C)CC5)c(C(F)(F)F)c4)ccc3Cl)cnc2[nH]1` [OR0621], for which the inhibition at 10 µM in assay [1] and in [2] was no less than 50% in each case. Also, the inhibition at 0.1 µM in assay [3], in assay [4], in assay [5], in assay [6], in assay [7] and in assay [8] was less than 50% throughout. Also, the inhibition at 0.1 µM in [9], in [10], in assay [11] and in assay [12] was less than 50% in each case.
Turning to `COC(=O)c1cc2cc(NCc3cccc(C(=O)Nc4ccc(CN5CCN(C)CC5)c(C(F)(F)F)c4)c3)cnc2[nH]1` [OR0635], the inhibition at 0.1 µM in [3] is less than 50%; in assay [4], less than 50%; in assay [7], no less than 50%; in assay [8], no less than 50%. The figures for the EC50 in [14] and in assay [15] were 100 to 1000 nM and no less than 1000 nM, respectively.
Consider `COC(=O)c1cc2cc(NCc3cc(NC(=O)c4cc(N5CCN(C)CC5)cc(C(F)(F)F)c4)ccc3C)cnc2[nH]1` [OR0698], for which the inhibition at 0.1 µM was less than 50% in assay [3]; no less than 50% in assay [4]; less than 50% in assay [5]; less than 50% in assay [7]; less than 50% in assay [8]; less than 50% in assay [9]. In assay [11], the inhibition at 0.1 µM is no less than 50%.
As to `COC(=O)c1cc2cc(NCc3cc(NC(=O)c4ccc(CN5CCN(C)CC5)c(F)c4)ccc3C)cnc2[nH]1` [OR0864], the inhibition at 0.1 µM in assay [3], in assay [4], in assay [7] and in assay [8] was no less than 50% throughout. This compound came in with an EC50 in assay [15] of no less than 1000 nM.
For `COC(=O)c1cc2cc(NCc3cc(NC(=O)Nc4cccnc4)ccc3C)cnc2[nH]1` [OR0896], the inhibition at 0.1 µM was no less than 50% in assay [3], no less than 50% in assay [4], less than 50% in [7] and less than 50% in assay [8]. The EC50 is 100 to 1000 nM in assay [14] and no less than 1000 nM in assay [15].
Consider `COC(=O)c1cc2cc(NCc3cccc(C(=O)Nc4cccnc4)c3)cnc2[nH]1` [OR0916], for which the inhibition at 0.1 µM in assay [3], in assay [4], in [7], in assay [8] and in assay [9] was less than 50% each time. Besides, the EC50 in assay [14] and in [15] was no less than 1000 nM in each case.
`COC(=O)c1cc2cc(NCc3cc(NC(=O)c4ccc(CN5CCC(N(C)C)C5)c(F)c4)ccc3C)cnc2[nH]1` (centres unmarked) [OR0974]: the inhibition at 0.1 µM is no less than 50% in [3], no less than 50% in assay [4], less than 50% in assay [7] and no less than 50% in assay [8]. Also, the concentration for a half-maximal effect (EC50) in assay [14] and in [15] was no less than 1000 nM throughout.
As to `COC(=O)c1cc2cc(NCc3cc(NC(=O)c4cc[nH]c4)ccc3C)cnc2[nH]1` [OR0975], the inhibition at 0.1 µM in assay [3] was no less than 50%; in [4], less than 50%; in assay [7] it was less than 50%; in [8] it was less than 50%; in assay [9], no less than 50%. In addition, the EC50 in [14] and in assay [15] was no less than 1000 nM each time.
`COC(=O)c1cc2cc(NC(=O)c3cccc(CNC(=O)c4ccc(CN5CCN(C)CC5)c(C(F)(F)F)c4)c3)cnc2[nH]1` [OR0983]: the inhibition at 0.1 µM in [3], in [4], in assay [7], in assay [8] and in [9] was less than 50% each time. The half-maximal effective concentration (EC50) in [14] and in assay [15] was no less than 1000 nM in each case.
`COC(=O)c1cc2cc(NCc3cccc(C(=O)NCc4cccc(C(F)(F)F)c4)c3)cnc2[nH]1` [OR1004]: the inhibition at 0.1 µM in assay [3], in assay [4], in assay [7], in [8] and in assay [9] was less than 50% each time. In addition, the concentration giving a half-maximal response (EC50) in assay [14] and in assay [15] was no less than 1000 nM in each case.
